Experiment [1] has as its target T1, TBK1 (Homo sapiens, UniProt Q9UHD2).
T1 sequence (Q9UHD2 1-729): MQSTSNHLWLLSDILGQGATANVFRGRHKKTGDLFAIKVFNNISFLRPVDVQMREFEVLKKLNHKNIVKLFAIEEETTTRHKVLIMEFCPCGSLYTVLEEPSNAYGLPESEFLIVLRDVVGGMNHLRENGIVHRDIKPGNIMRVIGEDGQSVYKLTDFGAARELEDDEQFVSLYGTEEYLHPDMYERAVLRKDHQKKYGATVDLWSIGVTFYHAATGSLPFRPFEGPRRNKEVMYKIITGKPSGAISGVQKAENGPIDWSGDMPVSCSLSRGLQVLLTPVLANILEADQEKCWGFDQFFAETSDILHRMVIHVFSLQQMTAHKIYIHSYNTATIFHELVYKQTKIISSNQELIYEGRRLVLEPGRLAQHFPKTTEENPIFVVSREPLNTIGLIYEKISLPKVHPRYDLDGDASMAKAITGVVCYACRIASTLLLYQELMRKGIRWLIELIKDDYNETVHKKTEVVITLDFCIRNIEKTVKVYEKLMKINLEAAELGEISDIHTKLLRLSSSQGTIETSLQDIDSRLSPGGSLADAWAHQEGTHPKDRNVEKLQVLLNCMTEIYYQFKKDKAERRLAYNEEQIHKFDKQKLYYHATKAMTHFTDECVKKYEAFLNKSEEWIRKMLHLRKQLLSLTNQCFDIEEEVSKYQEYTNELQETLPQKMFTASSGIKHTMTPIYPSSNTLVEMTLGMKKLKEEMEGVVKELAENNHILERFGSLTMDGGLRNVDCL
In words: TBK biochemical assay. Particulars: 10 point 1:4 dose response, 30 uM top concentration, 90 min at 25° C., LabChip EZ Reader II; read-out: TBK1_IC50. The gist of the method: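 Substrate and product were separated and quantified by microfluidic mobility-shift read (LabChip). 10 uM staurosporine served as the full-inhibition control, and the reference compound was tested from 1 uM final.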

Experiment [2] deals with T2, IKKε (Homo sapiens, UniProt Q14164).
T2 sequence (Q14164 1-716): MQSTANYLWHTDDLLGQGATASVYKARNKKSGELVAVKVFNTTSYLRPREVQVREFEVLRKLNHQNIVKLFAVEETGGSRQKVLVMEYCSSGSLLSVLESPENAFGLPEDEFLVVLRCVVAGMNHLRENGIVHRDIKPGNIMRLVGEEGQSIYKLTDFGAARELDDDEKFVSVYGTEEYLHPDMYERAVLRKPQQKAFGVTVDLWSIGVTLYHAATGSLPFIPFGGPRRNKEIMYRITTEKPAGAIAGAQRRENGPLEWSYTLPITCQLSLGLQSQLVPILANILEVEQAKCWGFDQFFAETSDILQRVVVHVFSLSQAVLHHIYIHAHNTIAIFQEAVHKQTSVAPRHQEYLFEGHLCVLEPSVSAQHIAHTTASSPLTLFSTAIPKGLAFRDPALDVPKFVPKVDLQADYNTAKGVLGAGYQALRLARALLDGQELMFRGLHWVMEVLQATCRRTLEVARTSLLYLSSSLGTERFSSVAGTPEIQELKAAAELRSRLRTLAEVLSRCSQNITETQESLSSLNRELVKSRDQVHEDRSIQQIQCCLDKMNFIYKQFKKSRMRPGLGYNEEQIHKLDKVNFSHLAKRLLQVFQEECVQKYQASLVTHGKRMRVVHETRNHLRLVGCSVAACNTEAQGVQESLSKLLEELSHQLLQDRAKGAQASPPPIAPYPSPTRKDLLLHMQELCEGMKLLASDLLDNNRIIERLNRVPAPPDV
Description: IKKε biochemical assay. As to conditions: 10 point 1:4 dose response, 30 uM top concentration, 90 min at 25° C., LabChip EZ Reader II; read-out: IKKε_IC50. The gist of the method:
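Compounds in 1% DMSO final were incubated with IKKε enzyme and substrate at 25° C. for 90 min, then stopped. Substrate and product peaks were resolved by LabChip EZ Reader II mobility-shift read-out. Staurosporine at 10 uM final served as the full-inhibition control.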

`COc1nc(Nc2ncc(F)c(-c3ccc(OC4CCN(C(=O)CO)CC4(F)F)c(C#N)c3)n2)ccc1N1CCN(C2COC2)CC1` (centres unmarked) [Example 290, 2-{[3,3-difluoro-1-(2-hydroxyacetyl)piperidin-4-yl]oxy}-5-[5-fluoro-2-({6-methoxy-5-[4-(oxetan-3-yl)piperazin-1-yl]pyridin-2-yl}amino)pyrimidin-4-yl]benzonitrile]: the IC50 in experiment [1] and in experiment [2] was less than 100 nM each time.
With `COc1nc(Nc2ncc(F)c(-c3ccc(OC4CCN(C(=O)C(C)O)CC4(F)F)c(C#N)c3)n2)ccc1N1CCN(C2COC2)CC1` (centres unmarked) [Example 291, 2-{[33-difluoro-1-(2-hydroxypropanoyl)piperidin-4-yl]oxy}-5-[5-fluoro-2-({6-methoxy-5-[4-(oxetan-3-yl)piperazin-1-yl]pyridin-2-yl}amino)pyrimidin-4-yl]], the IC50 in experiment [1] and in experiment [2] was less than 100 nM in each case.
`COc1nc(Nc2ncc(F)c(-c3ccc(OC4CCN(C(=O)[C@H](C)O)CC4(F)F)c(C#N)c3)n2)ccc1N1CCN(C2COC2)CC1` (stereo partly drawn) [Example 292, 2-({3,3-difluoro-1-[(2S)-2-hydroxypropanoyl]piperidin-4-yl}oxy)-5-[5-fluoro-2-({6-methoxy-5-[4-(oxetan-3-yl)piperazin-1-yl]pyridin-2-yl}amino)pyrimidin-4-yl]benzonitrile]: the IC50 in experiment [1] and in experiment [2] was less than 100 nM each time.
For the compound `COc1nc(Nc2ncc(F)c(-c3ccc(OC4CCN(C(=O)C(C)O)CC4(F)F)c(C#N)c3)n2)ccc1C1CCN(C2COC2)CC1` (centres unmarked) [Example 294, 2-{[33-difluoro-1-(2-hydroxypropanoyl)piperidin-4-yl]oxy}-5-[5-fluoro-2-({6-methoxy-5-[1-(oxetan-3-yl)piperidin-4-yl]pyridin-2-yl}amino)pyrimidin-4-yl]benzonitrile], the IC50 in experiment [1] and in experiment [2] was less than 100 nM each time.
For `CC(O)C(=O)N1CC[C@H](Oc2ccc(-c3nc(Nc4ccc(N5CCN(C6COC6)CC5)cc4)ncc3F)cc2C#N)[C@H](F)C1` (stereo partly drawn) [Example 295, 2-{[(3R,4S)-3-fluoro-1-(2-hydroxypropanoyl)piperidin-4-yl]oxy}-5-[5-fluoro-2-({4-[4-(oxetan-3-yl)piperazin-1-yl]phenyl}amino)pyrimidin-4-yl]benzonitrile], the IC50 in experiment [1] and in experiment [2] was less than 100 nM in each case.
As for `C[C@H](O)C(=O)N1CC[C@H](Oc2ccc(-c3nc(Nc4ccc(N5CCN(C6COC6)CC5)cc4)ncc3F)cc2C#N)[C@H](F)C1` [Example 296, 2-({3-fluoro-1-[(2S)-2-hydroxypropanoyl]piperidin-4-yl}oxy)-5-[5-fluoro-2-({4-[4-(oxetan-3-yl)piperazin-1-yl]phenyl}amino)pyrimidin-4-yl]benzonitrile], the IC50 in experiment [1] and in experiment [2] was less than 100 nM each time.
As to `COc1nc(Nc2ncc(F)c(-c3ccc(O[C@H]4CCN(C(=O)[C@H](C)O)C[C@H]4F)c(C#N)c3)n2)ccc1N1CCN(C2COC2)CC1` [Example 298, 2-({3-fluoro-1-[(2S)-2-hydroxypropanoyl]piperidin-4-yl}oxy)-5-[5-fluoro-2-({6-methoxy-5-[4-(oxetan-3-yl)piperazin-1-yl]pyridin-2-yl}amino)pyrimidin-4-yl]benzonitrile], the IC50 in experiment [1] and in experiment [2] was less than 100 nM in each case.
As to `CC(O)C(=O)N1CCC(Oc2ccc(-c3nc(Nc4ccc(N5CCN(C6COC6)CC5)cc4)ncc3F)cc2C#N)C(F)(F)C1` (centres unmarked) [Example 299, 2-{[3,3-difluoro-1-(2-hydroxypropanoyl)piperidin-4-yl]oxy}-5-[5-fluoro-2-({4-[4-(oxetan-3-yl)piperazin-1-yl]phenyl}amino)pyrimidin-4-yl]benzonitrile], the IC50 in experiment [1] and in experiment [2] was less than 100 nM in each case.
For the compound `C[C@H](O)C(=O)N1CCC(Oc2ccc(-c3nc(Nc4ccc(N5CCN(C6COC6)CC5)cc4)ncc3F)cc2C#N)C(F)(F)C1` (stereo partly drawn) [Example 300, 2-({3,3-difluoro-1-[(2S)-2-hydroxypropanoyl]piperidin-4-yl}oxy)-5-[5-fluoro-2-({4-[4-(oxetan-3-yl)piperazin-1-yl]phenyl}amino)pyrimidin-4-yl]benzonitrile], the IC50 in experiment [1] and in experiment [2] was less than 100 nM throughout.
For the compound `C[C@H](O)C(=O)N1CCC(Oc2ccc(-c3nc(Nc4ccc(C5CCN(C6COC6)CC5)cc4)ncc3F)cc2C#N)C(F)(F)C1` (stereo partly drawn) [Example 301, 2-({3,3-difluoro-1-[(2S)-2-hydroxypropanoyl]piperidin-4-yl}oxy)-5-[5-fluoro-2-({4-[1-(oxetan-3-yl)piperidin-4-yl]phenyl}amino)pyrimidin-4-yl]benzonitrile], the IC50 in experiment [1] and in experiment [2] was less than 100 nM in each case.
On to `COc1nc(Nc2nccc(-c3cc(C#N)c(OC4CCN(C(=O)[C@H](C)O)CC4(F)F)cn3)n2)ccc1N1CCN(C2COC2)CC1` (stereo partly drawn) [Example 303, 5-([33-difluoro-1-[(2S)-2-hydroxypropanoyl]piperidin-4-yl]oxy)-2-[2-([6-methoxy-5-[4-(oxetan-3-yl)piperazin-1-yl]pyridin-2-yl]amino)pyrimidin-4-yl]pyridine-4-carbonitrile], for which the IC50 in experiment [1] was 100 to 1000 nM; in experiment [2] it was 1000 to 5000 nM.
The like results for `COc1nc(Nc2nccc(-c3ccc(OC4CCN(C(=O)[C@H](C)O)CC4(F)F)c(C#N)n3)n2)ccc1N1CCN(C2COC2)CC1` (stereo partly drawn) [Example 304, 3-([3,3-difluoro-1-[(2S)-2-hydroxypropanoyl]piperidin-4-yl]oxy)-6-[2-([6-methoxy-5-[4-(oxetan-3-yl)piperazin-1-yl]pyridin-2-yl]amino)pyrimidin-4-yl]pyridine-2-carbonitrile] were, in that order, less than 100 nM and less than 100 nM.
The matching figures for `COc1nc(Nc2nccc(-c3cnc(OC4CCN(C(=O)[C@H](C)O)CC4(F)F)c(C#N)c3)n2)ccc1N1CCN(C2COC2)CC1` (stereo partly drawn) [Example 305, 2-([3,3-difluoro-1-[(2S)-2-hydroxypropanoyl]piperidin-4-yl]oxy)-5-[2-([6-methoxy-5-[4-(oxetan-3-yl)piperazin-1-yl]pyridin-2-yl]amino)pyrimidin-4-yl]pyridine-3-carbonitrile]: less than 100 nM and less than 100 nM.
The matching figures for `C[C@H](O)C(=O)N1CCC(Oc2ccc(-c3ccnc(Nc4ccc(N5CCN(C6COC6)CC5)cc4)n3)nc2C#N)C(F)(F)C1` (stereo partly drawn) [Example 306, 3-([33-difluoro-1-[(2S)-2-hydroxypropanoyl]piperidin-4-yl]oxy)-6-[2-([4-[4-(oxetan-3-yl)piperazin-1-yl]phenyl]amino)pyrimidin-4-yl]pyridine-2-carbonitrile]: less than 100 nM and less than 100 nM.
`COc1nc(Nc2nccc(-c3cc(C#N)c(OC4CCN(C(=O)[C@H](C)O)CC4(F)F)cc3C)n2)ccc1N1CCN(C2COC2)CC1` (stereo partly drawn) [Example 307, 2-([3,3-difluoro-1-[(2S)-2-hydroxypropanoyl]piperidin-4-yl]oxy)-5-[2-([6-methoxy-5-[4-(oxetan-3-yl)piperazin-1-yl]pyridin-2-yl]amino)pyrimidin-4-yl]-4-methylbenzonitrile]: the IC50 in experiment [1] and in experiment [2] was less than 100 nM each time.
For the compound `COc1cc(N2CCN(C3COC3)CC2)cnc1Nc1nccc(-c2ccc(OC3CCN(C(=O)[C@H](C)O)CC3(F)F)c(C#N)c2)n1` (stereo partly drawn) [Example 309, 2-([3,3-difluoro-1-[(2S)-2-hydroxypropanoyl]piperidin-4-yl]oxy)-5-[2-([3-methoxy-5-[4-(oxetan-3-yl)piperazin-1-yl]pyridin-2-yl]amino)pyrimidin-4-yl]benzonitrile], the IC50 in experiment [1] and in experiment [2] was 100 to 1000 nM in each case.

These data come from patent publication US20230019491A1, “PYRIMIDINE TBK/IKKe INHIBITOR COMPOUNDS AND USES THEREOF” (Merck Patent GmbH, priority 2017, published 2023).
